According to patent US20050203071A1, “Use of carbon-2-modified-19-nor-vitamin d analogs to induce the formation of new bone” (priority 2003, published 2005):
Read-outs that look alike come from different tables or passages of the source.

Experiments:
ovariectomized rats = conditions: ovariectomized animal/rats, cited from earlier work
[1] = system: human osteoblast cultures; assay: bone nodule formation in vitro in human osteoblast cultures (Von Kossa stain); format: cell-based; conditions: for stimulation of osteoblast cultures to form mineralized bone, Von Kossa stain (FIG. 2): different concentrations, human osteoblast cultures
Text: Human bone samples discarded after surgical procedures from patients undergoing hip/knee replacement surgeries are obtained under an approved IRB protocol (Protocol #2001-055) and processed as described below. These bone pieces are otherwise routinely discarded as waste material during surgery.
The bone pieces are thoroughly washed and cleaned under sterile conditions using phosphate-buffered saline (PBS). These pieces are then cut to obtain smaller pieces (1-2 mm^3) and subjected to enzymatic digestion process to isolate osteoblasts as described below.
Osteoblastic cells are obtained from the bone pieces by collagenase digestion. Briefly, the bone samples are washed twice in PBS and dissected in about 1 mm^3 size fragments which are then sequentially digested in trypsin (1 mg/mL) for ten minutes, followed by dispase (2 mg/mL) for twenty minutes, and bacterial collagenase [Collagenase A] (3 mg/mL) twice for thirty minutes in PBS at 37° C. in a water bath. Cells released by collagenase digestion are then washed, counted and grown to sub-confluence in 25 cm^2 cell culture flasks in 1:1 Ham's F12/Dulbecco's modification of Eagle's medium (DMEM) supplemented with 10% fetal bovine serum. Cells are cultured at 37° C. in a humidified atmosphere of 5% CO2/95% air. Medium changes are made every 2-3 days and cells are cultured until they are 80% confluent. Cells are then trypsinized, washed and frozen from early passages for evaluation using techniques as described below.
In order to evaluate the ability of osteoblasts to form bone nodules in vitro, cells are cultured in 6 well plates at 1-3×10^5 cells/well. Cells are cultured in the presence of either 1,25-(OH)2D3 or vitamin D analogs at various doses for 7 days. Complete medium changes are carried out twice during the 7-day period and the medium is supplemented with fresh compounds (either 1,25-(OH)2D3 or 2-methylene-19-nor-(20S)-1α,25-dihydroxyvitamin D3—2MD) during each medium change. At days 10 and 13, complete medium changes are carried out and the compounds are replaced by treatment with ascorbic acid (50 μg/ml) and β-glycerol phosphate (10 mM). A third dose of ascorbic acid and β-glycerol phosphate is added to the cultures on day 15 if needed. Following the culture period, cells are stained using the Von Kossa technique. Briefly, cells are stained with 5% silver nitrate for 30 minutes in the dark, rinsed with distilled water, reduced with sodium carbonate/formaldehyde solution for 2 minutes and washed under tap water for 10 minutes. The cells are then stained with methyl green pyronin for 20 minutes, washed with water followed by two washes of absolute alcohol. […] Bone nodule formation in vitro can be assessed quantitatively by various published procedures.

Compound	bone mass (ovariectomized rats)	change in osteoblast cultures / formation of mineralized bone (FIG. 1) ([1]; 10^−8 molar, after 14 days of incubation)	stimulation of osteoblast cultures to form mineralized bone, Von Kossa stain (FIG. 2) [1]	degree of new bone formation ([1]; concentration of 10^−12 molar)	bone mass (ovariectomized rats; listed as 2-methylene-19-nor-20S-1,25-(OH)2D3)
CC1C(O)CC(=CC=C2CCC[C@]3(C)[C@@H]([C@@H](C)CCCC(C)(C)O)CC[C@@H]23)CC1O (stereo partly drawn) [2α-methyl-19-nor-20S-1,25-(OH)2D3, 2α-methyl-19-nor-20(S)-1α,25-dihydroxyvitamin D3]	increase bone mass				
C=C1/C(=C\C=C2/CCC[C@]3(C)[C@@H]([C@H](C)CCCC(C)(C)O)CC[C@@H]23)C[C@@H](O)C[C@@H]1O [1,25-(OH)2D3, 1α,25-dihydroxyvitamin D3, reference compound]		very little change	does not produce this effect		
C=C1[C@H](O)CC(=C/C=C2\CCC[C@]3(C)[C@@H]([C@@H](C)CCCC(C)(C)O)CC[C@@H]23)C[C@H]1O [2MD, 2-methylene-19-nor-(20S)-1α,25-dihydroxyvitamin D3]	markedly stimulate bone mass accumulation		unique and strong action	saturating degree of new bone formation	increase bone mass
